# Source: publication PMC10050199 (Sensors and Actuators. B, Chemical, 2023)
# Key:
# SARS-CoV-2 SP [1] = molecular target: T1, SARS-CoV-2 SP (Severe acute respiratory syndrome coronavirus 2, UniProt P0DTC2)
# SARS-CoV-2 S1 = type: binding
# SARS-CoV-2 SP [2] = molecular target: T1, SARS-CoV-2 SP; remark: listed apart in the source
Sequence,binding to SARS-CoV-2 SP (absorbance) (SARS-CoV-2 SP [1]),binding to SARS-CoV-2 S1 (SARS-CoV-2 S1),frequency of peptide sequence among sequenced phage monoclonals (SARS-CoV-2 SP [2])
WNLDLSQWLPPM [P1-phage],higher absorbance value and was significantly higher than that of the control,may also bind to SARS-CoV-2 S1 loosely,
WNLDLSQWLPPM [P1],,,16/30
